Laboratory results reported in paper PMC6282105 (Molecular Pharmaceutics, 2018).

What was measured:
[1] = Stability of the building block toward SPPS reagents; assay type: physicochemical; settings: SPPS conditions
nitroreductase (NTR) = target: T1, nitroreductase (NTR) (Escherichia coli, UniProt P38489); assay: NTR-mediated removal of the CNBz moiety, followed by analytical HPLC; assay type: biochemical; settings: 0.3 equiv NTR, NADH as cofactor, analytical HPLC (Figure S2)
T1 sequence (P38489 1-217): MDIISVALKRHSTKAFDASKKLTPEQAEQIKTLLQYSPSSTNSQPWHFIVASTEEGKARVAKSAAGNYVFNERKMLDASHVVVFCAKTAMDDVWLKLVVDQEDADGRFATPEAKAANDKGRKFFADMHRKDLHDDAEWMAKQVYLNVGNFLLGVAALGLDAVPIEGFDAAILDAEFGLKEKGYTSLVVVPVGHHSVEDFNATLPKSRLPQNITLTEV

O=C(NCCCC(NC(=O)OCC1c2ccccc2-c2ccccc21)C(=O)O)NC(=O)OCc1ccc([N+](=O)[O-])cc1 (centres unmarked) [compound 1, 14-(9H-fluoren-9-yl)-1-(4-nitrophenyl)-3,5,12-trioxo-2,13-dioxa-4,6,11-triazatetradecane-10-carboxylic acid]
stability toward 20% piperidine and TFA [1]: very stable
time to full removal of the CNBz moiety (nitroreductase (NTR)): ≤ 5 min
